Calls of active or inactive are those of the source. The rule behind the calls is not given here.
System: CCRIS mutagenicity, Ames/micronucleus/aberration tests
Test: CCRIS mutagenicity studies
[1] = Test System: AMES SALMONELLA TYPHIMURIUM, Strain/Indicator: TA98, Metabolic Activation: NONE, Method: STANDARD PLATE
[2] = Test System: AMES SALMONELLA TYPHIMURIUM, Strain/Indicator: TA100, Metabolic Activation: NONE, Method: STANDARD PLATE
[3] = Test System: AMES SALMONELLA TYPHIMURIUM, Strain/Indicator: TA97, Metabolic Activation: NONE, Method: PREINCUBATION
[4] = Test System: AMES SALMONELLA TYPHIMURIUM, Strain/Indicator: TA98, Metabolic Activation: NONE, Method: PREINCUBATION
[5] = Test System: AMES SALMONELLA TYPHIMURIUM, Strain/Indicator: TA98, Metabolic Activation: RAT, LIVER, S-9, AROCLOR 1254, Method: PREINCUBATION
[6] = Test System: AMES SALMONELLA TYPHIMURIUM, Strain/Indicator: TA100, Metabolic Activation: NONE, Method: PREINCUBATION
[7] = Test System: AMES SALMONELLA TYPHIMURIUM, Strain/Indicator: TA102, Metabolic Activation: NONE, Method: PREINCUBATION

`O=c1[nH]cc(/C=C/Br)c(=O)[nH]1` was tested, and the mutagenic call (Test System: CHINESE HAMSTER V-79, Strain/Indicator: V-79/8-AZAGUANINE, Metabolic Activation: NONE) was “inactive; negative” and the mutagenic call (Test System: UDS RODENT HEPATOCYTES, Strain/Indicator: THY INCORP, Metabolic Activation: NONE) was “inactive; negative”.

`O=[N+]([O-])c1cccc2c1-c1cccc3c([N+](=O)[O-])ccc-2c13` was tested, and the mutagenic call (Test System: AMES SALMONELLA TYPHIMURIUM, Strain/Indicator: TA97, Metabolic Activation: NONE) was “active; positive”, the mutagenic call (Test System: AMES SALMONELLA TYPHIMURIUM, Strain/Indicator: TA98(1,8-DNP6), Metabolic Activation: NONE) was “active; positive” and the mutagenic call (Test System: AMES SALMONELLA TYPHIMURIUM, Strain/Indicator: TA98(NR), Metabolic Activation: NONE) was “active; positive”. The mutagenic call (Test System: AMES SALMONELLA TYPHIMURIUM, Strain/Indicator: TA98, Metabolic Activation: NONE) was “active; positive”, the mutagenic call (Test System: AMES SALMONELLA TYPHIMURIUM, Strain/Indicator: TA100, Metabolic Activation: NONE) was “active; positive” and the mutagenic call (Test System: AMES SALMONELLA TYPHIMURIUM, Strain/Indicator: TA1535, Metabolic Activation: NONE) was “inactive; negative”. The mutagenic call (Test System: AMES SALMONELLA TYPHIMURIUM, Strain/Indicator: TA1537, Metabolic Activation: NONE) was “active; positive”, the mutagenic call (Test System: AMES SALMONELLA TYPHIMURIUM, Strain/Indicator: TA1538, Metabolic Activation: NONE) was “active; positive” and the mutagenic call (Test System: AMES SALMONELLA TYPHIMURIUM, Strain/Indicator: TA1978, Metabolic Activation: NONE) was “active; positive”.

For `O[C@@H]1[C@H]2O[C@H]2c2c(ccc3nc4ccc5ccccc5c4cc23)[C@H]1O`, the mutagenic call [1] was “active; positive”, the mutagenic call (Test System: AMES SALMONELLA TYPHIMURIUM, Strain/Indicator: TA100, Metabolic Activation: GUINEA PIG, LIVER, S-9, 3-METHYLCHOLANTHRENE, Method: STANDARD PLATE) was “active; positive” and the mutagenic call [2] was “active; positive”. For the same compound, the mutagenic call (Test System: CHINESE HAMSTER V-79, Strain/Indicator: V-79/6-THIOGUANINE, Metabolic Activation: NONE) was “active; positive”.

`CC1=NCCc2c1[nH]c1cc(O)ccc21` was tested, and the mutagenic call [3] was “inactive; negative”, the mutagenic call (Test System: AMES SALMONELLA TYPHIMURIUM, Strain/Indicator: TA97, Metabolic Activation: RAT, LIVER, S-9, AROCLOR 1254, Method: PREINCUBATION) was “inactive; negative” and the mutagenic call [4] was “inactive; negative”. The mutagenic call [5] was “inactive; negative”, the mutagenic call [6] was “inactive; negative” and the mutagenic call (Test System: AMES SALMONELLA TYPHIMURIUM, Strain/Indicator: TA100, Metabolic Activation: RAT, LIVER, S-9, AROCLOR 1254, Method: PREINCUBATION) was “inactive; negative”. The mutagenic call [7] was “inactive; negative” and the mutagenic call (Test System: AMES SALMONELLA TYPHIMURIUM, Strain/Indicator: TA102, Metabolic Activation: RAT, LIVER, S-9, AROCLOR 1254, Method: PREINCUBATION) was “inactive; negative”.

In the case of `CC1(C)C[C@H]2C=C(C=O)[C@]3(C=O)C[C@]3(C)[C@H]2C1`, the mutagenic call [1] is reported as “active; positive”, the mutagenic call [2] is reported as “active; positive” and the mutagenic call (Test System: AMES SALMONELLA TYPHIMURIUM, Strain/Indicator: TA2637, Metabolic Activation: NONE, Method: STANDARD PLATE) is reported as “active; positive”. For the same compound, the mutagenic call (Test System: CHINESE HAMSTER V-79, Strain/Indicator: V-79/6-THIOGUANINE (HGPRT), Metabolic Activation: NONE) was “active; positive”.

For `c1ccc(COc2cccc3cccnc23)cc1`, the mutagenic call (Test System: AMES SALMONELLA TYPHIMURIUM, Strain/Indicator: TA100, Metabolic Activation: S-9, Method: PREINCUBATION) was “inactive; negative”.

In the case of `CCn1c(N)nc2c3cccnc3ccc21`, the mutagenic call [5] is reported as “active; positive”.

In the case of `BrCC(Br)c1ccccc1` (stereo not given), the mutagenic call (Test System: AMES SALMONELLA TYPHIMURIUM, Strain/Indicator: TA100/NG-57, Metabolic Activation: CELL PRETREATMENT WITH GLUTATHIONE, Method: PREINCUBATION) is reported as “active; positive”, the mutagenic call (Test System: AMES SALMONELLA TYPHIMURIUM, Strain/Indicator: TA100/NG-57, Metabolic Activation: NONE, Method: PREINCUBATION) is reported as “active; positive” and the mutagenic call (Test System: AMES SALMONELLA TYPHIMURIUM, Strain/Indicator: TA100, Metabolic Activation: CELL PRETREATMENT WITH GLUTATHIONE, Method: PREINCUBATION) is reported as “active; positive”. The mutagenic call [6] was “active; positive” and the mutagenic call (Test System: AMES SALMONELLA TYPHIMURIUM, Strain/Indicator: TA100, Metabolic Activation: NONE, Method: SPOT TEST) was “active; positive”.

For `CC(=O)[O][Sn]([c]1ccccc1)([c]1ccccc1)[c]1ccccc1`, the mutagenic call (End Point: IN VIVO MICRONUCLEUS, Test System: BONE MARROW POLYCHROMATIC ERYTHROCYTES, Species: MOUSE, Strain/Sex: SWISS/MALE, FEMALE, Route: IP 2X IN AQUEOUS SUSPENSION WITHIN 24 HR) was “active; positive”.

In the case of `CC(=O)CC(O)(CC(=O)O)C(=O)O` (stereo not given), the mutagenic call [3] is reported as “inactive; negative”, the mutagenic call (Test System: AMES SALMONELLA TYPHIMURIUM, Strain/Indicator: TA97, Metabolic Activation: S-9, Method: PREINCUBATION) is reported as “inactive; negative” and the mutagenic call [7] is reported as “inactive; negative”. The mutagenic call (Test System: AMES SALMONELLA TYPHIMURIUM, Strain/Indicator: TA102, Metabolic Activation: S-9, Method: PREINCUBATION) was “inactive; negative”.

In the case of `O=C(CC(O)(CC(=O)OCCBr)C(=O)OCCBr)OCCBr`, the mutagenic call [2] is reported as “inactive; negative” and the mutagenic call (Test System: AMES SALMONELLA TYPHIMURIUM, Strain/Indicator: TA100, Metabolic Activation: RAT, LIVER, S-9, AROCLOR 1254, Method: STANDARD PLATE) is reported as “active; positive”.

With `COc1c(CO)c(O)cc2c1C(=O)c1ccccc1C2=O` the mutagenic call [4] was “inactive; negative”, the mutagenic call (Test System: AMES SALMONELLA TYPHIMURIUM, Strain/Indicator: TA98, Metabolic Activation: RAT, LIVER, S-9, PCB, Method: PREINCUBATION) was “inactive; negative” and the mutagenic call [6] was “active; positive”. For the same compound, the mutagenic call (Test System: AMES SALMONELLA TYPHIMURIUM, Strain/Indicator: TA100, Metabolic Activation: RAT, LIVER, S-9, PCB, Method: PREINCUBATION) was “active; positive”.

For `C[C@H]1CCCC(=O)CCCCCc2cc(O)cc(O)c2C(=O)O1`, the mutagenic call [1] was “inactive; negative”, the mutagenic call (Test System: AMES SALMONELLA TYPHIMURIUM, Strain/Indicator: TA98, Metabolic Activation: RAT, LIVER, S-9, Method: STANDARD PLATE) was “inactive; negative” and the mutagenic call [2] was “inactive; negative”. For the same compound, the mutagenic call (Test System: AMES SALMONELLA TYPHIMURIUM, Strain/Indicator: TA100, Metabolic Activation: RAT, LIVER, S-9, Method: STANDARD PLATE) was “inactive; negative”, the mutagenic call (Test System: AMES SALMONELLA TYPHIMURIUM, Strain/Indicator: TA1535, Metabolic Activation: NONE, Method: STANDARD PLATE) was “inactive; negative” and the mutagenic call (Test System: AMES SALMONELLA TYPHIMURIUM, Strain/Indicator: TA1535, Metabolic Activation: RAT, LIVER, S-9, Method: STANDARD PLATE) was “inactive; negative; toxicity at 1000 ug/plate”. For the same compound, the mutagenic call (Test System: AMES SALMONELLA TYPHIMURIUM, Strain/Indicator: TA1537, Metabolic Activation: NONE, Method: STANDARD PLATE) was “inactive; negative”, the mutagenic call (Test System: AMES SALMONELLA TYPHIMURIUM, Strain/Indicator: TA1537, Metabolic Activation: RAT, LIVER, S-9, Method: STANDARD PLATE) was “inactive; negative” and the mutagenic call (Test System: AMES SALMONELLA TYPHIMURIUM, Strain/Indicator: TA1538, Metabolic Activation: NONE, Method: STANDARD PLATE) was “inactive; negative”. The mutagenic call (Test System: AMES SALMONELLA TYPHIMURIUM, Strain/Indicator: TA1538, Metabolic Activation: RAT, LIVER, S-9, Method: STANDARD PLATE) was “inactive; negative”.

From PubChem BioAssay AID1259407 (Chemical Carcinogenesis Research Information System (CCRIS), 2018)
